pIC50: −log10 of the molar value.
Experiments:
[1] = test system: Candida albicans 6862 (clinical isolate); test: microbe, parasite or virus in culture; assay type: cell-based; details: 6862 (clinical isolate, 24 h)
Method: (§1) Four compounds were supplied as an aqueous solution, 400 μM. Serial dilutions of each test peptide were prepared in addition to a control, which was a conventional antifungal drug, Amphoteracin B. Amphteracin B is obtained from Invitrogen or Melford laboratories.
(§2) Initial testing of the peptides was carried out against the following organisms: • 1) Aspergillus fumigatus AF293 (culture collection strain NCPF7367) • 2) Candida albicans 6862 (clinical isolate) • 3) Fusarium spp 5889 (clinical isolate) • 4) Fusarium spp 6507 (clinical isolate) • 5) Aspergillus terreus (clinical isolate) • 6) Aspergillus niger (clinical isolate) • 7) Staphylococcus aureus (Oxford strain, which is a standard reference strain used in MIC testing)
(§3) The bacterium S. aureus was tested with each of the peptides as a control. A suspension of each organism in an appropriate growth medium was added to the, dilutions of the peptides in order to give concentration ranges of 40 μM to 0.04 μM for each of the peptides, and 64-0.025 μg/ml for amphotericin B. Fungal strains were tested in RPMI media. RPMI is standard Roswell Park Memorial Institute medium (Morton, H. C., (1970) A survey of Commercially Available Tissue Culture Media. In Vitro 6: 89-108).
(§4) The final inoculum for S. aureus was 5×10^4 cfu/ml. The final inoculum for C. albicans was 2×10^3 cfu/ml. The final inoculum for Aspergillus fumigatus and for Fusarium spp was 2×10^4 cfu/ml.
(§5) Candida and S. aureus plates were read after 24 hrs incubation and the Aspergillus and Fusarium strains read after 48 hrs. The MIC was taken as the lowest drug or compound concentration that caused >80% reduction in growth compared with a drug free control.

[2] = test system: Aspergillus fumigatus AF293 (NCPF7367); test: microbe, parasite or virus in culture; assay type: cell-based; details: for MIC: AF293 (NCPF7367, 48 h); for MIC values (>80% reduction) AF: Aspergillus fumigatus 293, peptides, Tables 4 and 5
Method: as §1, §2, §3, §4, §5
Aspergillus fumigatus 293 (AF); and
FS1-FS4 were obtained from Bristol PHLS (British Public Health Laboratory Service UK). Aspergillus fumigatus 293 is publicly available as culture collection strain NCPF7367 (National Collection of Pathogenic Fungi Public Health Laboratory, Mycological Reference Laboratory Myrtle Road, Kingsdown, Bristol BS2 8EL) The Candida albicans was a clinical isolate obtained by standard means. […]

[3] = test system: Fusarium spp 5889 (clinical isolate); test: Antifungal MIC broth dilution (Example 1); assay type: cell-based; details: RPMI, 48 hrs, >80% reduction
Method: as §1, §2, §3, §4, §5

[4] = test system: Fusarium spp 6507 (clinical isolate); test: Antifungal MIC broth dilution (Example 1); assay type: cell-based; details: RPMI, 48 hrs, >80% reduction
Method: as §1, §2, §3, §4, §5

[5] = test system: Aspergillus niger (clinical isolate); test: microbe, parasite or virus in culture; assay type: cell-based; details: clinical isolate
Method: as §1, §2, §3, §5

[6] = test system: Aspergillus terreus (clinical isolate); test: microbe, parasite or virus in culture; assay type: cell-based
Method: as §1, §2, §3, §5

[7] = test system: Staphylococcus aureus (Oxford strain); test: microbe, parasite or virus in culture; assay type: cell-based; details: Oxford strain, 24 h
Method: as §1, §2, §3
S. aureus was tested in Isosensitest broth. Isosentitest agar is a standard MIC medium used by many hospital labs for bacterial MICs using a disc diffusion method. The reference standard is Oxoid CM471. Also available in broth form, CM473, for the bacterial broth dilution assay method. NCCLS ref M7-A4. Both the NCCLS methods quoted are the standard methods.
as §4, §5

[8] = test system: Acanthamoeba polyphaga (trophozoites), Ros strain; test: Microtitre plate assay against Acanthamoeba trophozoites (Example 2); assay type: cell-based; details: for MATC = minimum amoebacidal trophozoite concentration: lowest concentration killing the trophozoite challenge
Excerpt: The test compounds were screened against the trophozoites of clinical isolates of Acanthamoeba spp. using a microtitre plate assay procedure. The organisms were Acanthamoeba polyphaga. (see for details on the strain and methodology used: Hughes, R. & Kilvington, S. (2001). A comparison of hydrogen peroxide contact lens disinfection systems and solutions against Acanthamoeba polyphaga. Antimicrob. Agents Chemother. 45: 2038-2043.) Acanthamoeba polyphaga Ros strain was used throughout the study. The strain was originally isolated from an unpublished case of acanthamoeba keratitis in the United Kingdom in 1994.
Use of the microliter plate assay enabled the determination of the minimum amoebacidal trophozoite concentration (MATC), which is the minimum amoebacidal trophozoite concentration (μg/ml)=lowest concentration killing the trophozoite challenge […] and also the minimum inhibitory trophozoite concentration (MITC), which is the minimum inhibitory trophozoite concentration (μg/ml)=lowest concentration stopping the trophozoites from dividing or killing about 50% of population. The values may then be used to select drug concentrations for use in time-kill experiments to study the kinetics of Acanthamoeba killing.

Fusarium solani 1 (FS1) = test: Antifungal MIC (Example 4); assay type: cell-based; details: Fusarium solani 1; peptides; Tables 4 and 5
Method: (§6) The inventor expanded the work conducted in Example 1 by testing an expanded library of peptides derived from either apolipoprotein B or apolipoprotein E in order to further evaluate polypeptides in accordance with the invention. These experiments were conducted using the following fungal species:
(§7) FS1-FS4 were obtained from Bristol PHLS (British Public Health Laboratory Service UK). Aspergillus fumigatus 293 is publicly available as culture collection strain NCPF7367 (National Collection of Pathogenic Fungi Public Health Laboratory, Mycological Reference Laboratory Myrtle Road, Kingsdown, Bristol BS2 8EL) The Candida albicans was a clinical isolate obtained by standard means.
(§8) The methods used to determine, the IC50 values for each peptide were as described in the Example 1.

Fusarium solani 2 (FS2) = test: Antifungal MIC (Example 4); assay type: cell-based; details: Fusarium solani 2; peptides; Tables 4 and 5
Method: as §6, §7, §8

Fusarium solani 3 (FS3) = test: Antifungal MIC (Example 4); assay type: cell-based; details: Fusarium solani 3; peptides; Tables 4 and 5
Method: as §6, §7, §8

Fusarium solani 4 (FS4) = test: Antifungal MIC (Example 4); assay type: cell-based; details: Fusarium solani 4; peptides; Tables 4 and 5
Method: as §6, §7, §8

[9] = test system: Candida albicans (CA), clinical isolate; test: Antifungal MIC (Example 4); assay type: cell-based; details: peptides, Tables 4 and 5
Method: as §6, §7, §8

P. berghei sporozoites = test: Sporozoite development assay in Hepa 1-6 cells (Example 5); assay type: cell-based, Plasmodium berghei; details: for inhibition of entry of P. berghei into Hep 1-6 cells: sporozoites pre-incubated with polypeptide at 50 μg/ml, plated on cells with peptide present, FIG. 5(A)
Method: 3-5 day-old Anopheles stephensi mosquitoes were fed on anesthetized P. berghei (NK65)-infected Swiss Webster mice which had been checked by blood smear for the abundance of gametocyte-stage parasites. Salivary gland sporozoites were harvested on days 18 to 21 post-infective blood meal. The mosquitoes were rinsed in 70% ethanol and washed in Dulbecco's Modified Eagle Medium (DMEM) before salivary gland dissection. The glands were gently ground, spun at 80×g for 3 min to remove mosquito debris and sporozoites counted in a hemocytometer.
Hepa 1-6 cells (ATCC CRL-1830, American Type Culture Collection, Manassas, Va.), a mouse hepatoma cell line permissive for P. berghei sporozoite development were seeded (8×10^4 cells/well) in Lab-Tek permanox chamber slides (Nalgene Nunc Corp., Naperville, Ill.) and grown until confluent. On the day of the experiment, sporozoites were dissected from mosquitoes and pre-incubated with Dulbecco's Modified Eagle Medium (DMEM; Invitrogen, Carlsbad, Calif.) with 1% BSA alone or with the indicated polypeptide at 50 μg/ml for 1 hr at 28° C. and plated on cells in the continued presence of the inhibitor in DMEM containing 10% fetal calf serum (complete medium). After 1 hr at 37° C., the medium containing unattached sporozoites and polypeptide was removed and replaced with complete medium. […] The number of EEFs in each well were counted with a 40× objective on a Nikon fluorescent microscope. In other experiments, Hepa1-6 cells were pretreated with the polypeptides at 50 μg/ml in complete medium for 1 hour, washed and then sporozoites were added in complete medium without polypeptide and the assay was continued as outlined above.

fungi = assay type: cell-based; details: fungus not specified; read-out: IC50 value for inhibiting fungal growth
Method: as §1, §2
The bacterium S. aureus was tested with each of the peptides as a control. […] RPMI is standard Roswell Park Memorial Institute medium (Morton, H. C., (1970) A survey of Commercially Available Tissue Culture Media. In Vitro 6: 89-108).
as §5, §8

bacteria = details: reported by Azuma et al., Peptides 21: 327-330 (2000); cited from earlier work

Substance | MIC [1] | MIC [2] | MIC values (>80% reduction) AF [2] | MIC [3] | MIC [4] | MIC [5] | MIC [6] | MIC [7] | MATC = minimum amoebacidal trophozoite concentration [8] | MIC values (>80% reduction) FS1 (Fusarium solani 1 (FS1)) | MIC values (>80% reduction) FS2 (Fusarium solani 2 (FS2)) | MIC values (>80% reduction) FS3 (Fusarium solani 3 (FS3)) | MIC values (>80% reduction) FS4 (Fusarium solani 4 (FS4)) | MIC values (>80% reduction) CA [9] | inhibition of entry of P. berghei into Hep 1-6 cells (P. berghei sporozoites) | MITC = minimum inhibitory trophozoite concentration ([8]; lowest concentration stopping trophozoites dividing or killing about 50% of population) | block of P. berghei entry after pretreatment of cells (P. berghei sporozoites; cells treated with peptide at 50 μg/ml for 1 hour, washed, then sporozoites added, FIG. 5(B)) | pIC50 (fungi) | antibacterial activity (in words) (bacteria)
Ac-LRKLRKRLLLRKLRKRLL-NH2 [MU_10] | >40 µM | >40 µM | >40 µM | 10 µM | >40 µM | >40 µM | >40 µM | >40 µM | 207.1 µM | 2.5 µM | 5 µM | 2.5 µM | 5 µM | >40 µM | inhibit entry of P. berghei into Hep 1-6 cells | – | – | – | –
Ac-WRKWRKRWWWRKWRKRWW-NH2 [MU_4] | 10 µM | 2.5 µM | 1.25 µM | 2.5 µM | 10 µM | 1.25 µM | >40 µM | 5 µM | 41.7 µM | 0.3 µM | 0.3 µM | 0.3 µM | 0.3 µM | 2.5 µM | inhibit entry of P. berghei into Hep 1-6 cells | 20.8 µM | retained its ability to block P. berghei entry | ≥ 5.60 | –
apoE134-151: Azuma's apolipoprotein E peptide, 18 amino acids in length (RVRLASHLRKLRKRLLRD; UniProt P02649 152-169, looked up, fragment) | – | – | – | – | – | – | – | – | – | – | – | – | – | – | – | – | – | – | no activity at all
apoE134-155: Azuma's apolipoprotein E peptide, 22 amino acids in length (RVRLASHLRKLRKRLLRDADDL; UniProt P02649 152-173, looked up, fragment) | – | – | – | – | – | – | – | – | – | – | – | – | – | – | – | – | – | – | very low antibacterial activity
apoE134-159: Azuma's apolipoprotein E peptide, 26 amino acids in length (RVRLASHLRKLRKRLLRDADDLQKRL; UniProt P02649 152-177, looked up, fragment) | – | – | – | – | – | – | – | – | – | – | – | – | – | – | – | – | – | – | greatly reduced antibacterial activity
